Assay results: US4353923A, “Pharmaceutical composition containing a benzofurancarboxamide derivative as the active ingredient” (Kyowa Hakko Kogyo Co., Ltd., priority 1980, dated 1982)
Counter-ions that a name gives are not always drawn.

Legend:
[1] = system: male dd mice; assay: Anticonvulsant activity: maximal electroshock convulsion test; format: in vivo; conditions: Mus musculus, po, 1 h, 60 min after administration, read-out: Maximal electroshock convulsion test, inhibition ratio; for responders at 50 mg/kg: 50 mg/kg p.o.; for responders at 75 mg/kg: 75 mg/kg p.o.; for responders at 100 mg/kg: 100 mg/kg p.o.; for responders at 25 mg/kg: 25 mg/kg p.o.
Text: Anticonvulsant activity was examined according to maximal electroshock convulsion test.
In this experiment, 10 male dd mice weighing 23±1 g were used as one group. Each drug was orally administered to the animals. Sixty minutes after the administration, an electric current (2000 V, 50 mA) was applied to both eyes of the mouse for 0.2 second. Drug activity was judged according to whether tonic extensor seizures were observed or not.

[2] = system: male dd mice; assay: Analgesic activity: acetic acid writhing; format: in vivo; conditions: Mus musculus, po, 1 h, acetic acid i.p. after 60 min, read-out: Inhibition ratio (writhes, vs control); for inhibition in vivo at 50 mg/kg: 50 mg/kg p.o.; for inhibition in vivo at 150 mg/kg: 150 mg/kg p.o.
Method: In this experiment, 10 male dd mice weighing 20±1 g were used as one group for examination of analgesic activity. Sixty minutes after oral administration of each drug to each animal, 0.2 ml of a 0.7% acetic acid solution was intraperitoneally administered to the animal. Starting 10 minutes after the administration of acetic acid, the number of writhes occurred in 10 minutes was counted. Average number of writhes and inhibition ratio in comparison with control group were calculated.

[3] = system: male dd mice; assay: Muscle relaxant activity: traction test; format: in vivo; conditions: 5 mice per group
Text: (§1) In this example, 5 male dd mice weighing 20±1 g were used as one group. Prior to the experiments, mice were placed on the rod having a diameter of 3 cm and rotating at 5 r.p.m. in the reverse direction of the rotation. […] The drugs were orally administered and the muscle relaxant activity with the passage of time was examined by the following tests.
Traction test: Forefeet of the same mouse were placed on a wire to observe whether it falls or not.
(§2) In each test, the drug was considered to have a muscle relaxant activity when the mouse fell.

[4] = in vivo; conditions: mouse, po, mice, deaths counted for 7 days
Method: In this example, 3-7 male dd mice weighing 20±1 g were used as one group. Each drug was suspended in a 0.3% CMC solution and orally administered. After the administration, number of dead animals was counted for 7 days to determine LD50 value. As the reference drugs, mepirizole and benzydamine hydrochloride were dissolved in water and orally administered. The drugs and the reference drugs were also administered in the same manner as above in Examples 2-5.

[5] = system: male Wistar rats; assay: Anti-inflammatory activity: carrageenin edema method; format: in vivo; conditions: Rattus norvegicus, po, 3 hours after carrageenin, read-out: Inhibition ratio (paw swelling, vs control); for inhibition in vivo at 150 mg/kg: 150 mg/kg p.o.
Method: In this experiment, 5 male Wistar rats weighing 140±10 g were used as one group. Sixty minutes after oral administration of each drug to each animal, 0.1 ml of a 1% carrageenin solution as a phlogistic agent was injected into the plantar surface of the right hind paw of the animal to induce inflammation. The volume of the paw was measured before and 3 hours after the injection of the phlogistic agent. Swelling ratio and inhibition ratio in comparison with control group were calculated.

[6] = system: male dd mice; assay: Muscle relaxant activity: slant test; format: in vivo; conditions: 5 mice per group
Method: as §1
Slant test: Each mouse was placed on a wire net inclined at an angle of 45° to observe whether it falls or not.
as §2

[7] = system: male dd mice; assay: Muscle relaxant activity: rotating rod test; format: in vivo; conditions: 5 mice per group
Method: as §1
Rotating rod test: The same mouse was placed on the rotating rod to observe whether it falls or not within 2 minutes.
as §2

`CN(C)CCCOc1nn(Cc2ccccc2)c2ccccc12` [Benzydamine hydrochloride, benzydamine hydrochloride, reference compound] gave a responders at 50 mg/kg [1] of 35%, a responders at 75 mg/kg [1] of 90% and a responders at 100 mg/kg [1] of 100%. It also gave a responders at 300 mg/kg ([1]; 300 mg/kg p.o.) of 100%, an inhibition in vivo at 50 mg/kg [2] of 0% and an inhibition in vivo at 200 mg/kg ([2]; 200 mg/kg p.o.) of 83.7%. For the same compound, the “Number of dropped mice, traction test” value ([3]; 300 mg/kg p.o., 1 hr) was 5 mice, the “Number of dropped mice, traction test” value ([3]; 300 mg/kg p.o., 2 hr) was 1 mice and the “Number of dropped mice, traction test” value ([3]; 300 mg/kg p.o., 3 hr) was 0 mice. It also gave an LD50 at 168 h [4] of 500 to 1000 mg/kg, an inhibition in vivo at 100 mg/kg ([5]; 100 mg/kg p.o.) of 14.4% and an inhibition in vivo at 200 mg/kg ([5]; 200 mg/kg p.o.) of 23.5%. The “Number of dropped mice, slant test” value ([6]; 300 mg/kg p.o., 1 hr) was 4 mice, the “Number of dropped mice, slant test” value ([6]; 300 mg/kg p.o., 2 hr) was 2 mice and the “Number of dropped mice, slant test” value ([6]; 300 mg/kg p.o., 3 hr) was 0 mice. The “Number of dropped mice, rotating rod test” value (“Number … rotating rod test” below) ([7]; 300 mg/kg p.o., 1 hr) was 5 mice, the “Number … rotating rod test” value ([7]; 300 mg/kg p.o., 2 hr) was 3 mice and the “Number … rotating rod test” value ([7]; 300 mg/kg p.o., 3 hr) was 2 mice.

Work on `Cc1c(C(=O)N(C)C)oc2cccc(Cl)c12` [Compound (A), 4-Chloro-N,N,3-trimethyl-benzo[b]furan-2-carboxamide] yielded a responders at 25 mg/kg [1] of 10%, a responders at 50 mg/kg [1] of 30% and a responders at 75 mg/kg [1] of 80%. The inhibition in vivo at 50 mg/kg [2] was 60.6%, the inhibition in vivo at 150 mg/kg [2] was 100% and the “Number of dropped mice, traction test” value ([3]; 75 mg/kg p.o., 1 hr) was 3 mice. For the same compound, the “Number of dropped mice, traction test” value ([3]; 75 mg/kg p.o., 2 hr) was 0 mice, the “Number of dropped mice, traction test” value ([3]; 75 mg/kg p.o., 3 hr) was 0 mice and the “Number of dropped mice, traction test” value ([3]; 150 mg/kg p.o., 1 hr) was 5 mice. For the same compound, the “Number of dropped mice, traction test” value ([3]; 150 mg/kg p.o., 2 hr) was 3 mice, the “Number of dropped mice, traction test” value ([3]; 150 mg/kg p.o., 3 hr) was 1 mice and the LD50 at 168 h [4] was over 1000 mg/kg. For the same compound, the inhibition in vivo at 150 mg/kg [5] was 33.4%, the “Number of dropped mice, slant test” value ([6]; 300 mg/kg p.o., 1 hr) was 4 mice and the “Number of dropped mice, slant test” value ([6]; 300 mg/kg p.o., 2 hr) was 3 mice. The “Number of dropped mice, slant test” value ([6]; 300 mg/kg p.o., 3 hr) was 3 mice, the “Number … rotating rod test” value ([7]; 75 mg/kg p.o., 1 hr) was 3 mice and the “Number … rotating rod test” value ([7]; 75 mg/kg p.o., 2 hr) was 2 mice. For the same compound, the “Number … rotating rod test” value ([7]; 75 mg/kg p.o., 3 hr) was 1 mice, the “Number … rotating rod test” value ([7]; 150 mg/kg p.o., 1 hr) was 5 mice and the “Number … rotating rod test” value ([7]; 150 mg/kg p.o., 2 hr) was 5 mice. For the same compound, the “Number … rotating rod test” value ([7]; 150 mg/kg p.o., 3 hr) was 2 mice.

For `Cc1c(C(=O)N(C)C)oc2cc(Cl)ccc12` [Compound (B), 6-Chloro-N,N,3-trimethyl-benzo[b]furan-2-carboxamide], the responders at 25 mg/kg [1] was 0%, the responders at 50 mg/kg [1] was 40% and the responders at 75 mg/kg [1] was 60%. The inhibition in vivo at 50 mg/kg [2] was 34.9%, the inhibition in vivo at 150 mg/kg [2] was 95.4% and the “Number of dropped mice, traction test” value ([3]; 75 mg/kg p.o., 1 hr) was 3 mice. For the same compound, the “Number of dropped mice, traction test” value ([3]; 75 mg/kg p.o., 2 hr) was 4 mice, the “Number of dropped mice, traction test” value ([3]; 75 mg/kg p.o., 3 hr) was 2 mice and the “Number of dropped mice, traction test” value ([3]; 150 mg/kg p.o., 1 hr) was 5 mice. For the same compound, the “Number of dropped mice, traction test” value ([3]; 150 mg/kg p.o., 2 hr) was 5 mice, the “Number of dropped mice, traction test” value ([3]; 150 mg/kg p.o., 3 hr) was 5 mice and the LD50 at 168 h [4] was 500 to 1000 mg/kg. The inhibition in vivo at 150 mg/kg [5] was 39.8%, the “Number of dropped mice, slant test” value ([6]; 300 mg/kg p.o., 1 hr) was 5 mice and the “Number of dropped mice, slant test” value ([6]; 300 mg/kg p.o., 2 hr) was 5 mice. For the same compound, the “Number of dropped mice, slant test” value ([6]; 300 mg/kg p.o., 3 hr) was 5 mice, the “Number … rotating rod test” value ([7]; 75 mg/kg p.o., 1 hr) was 5 mice and the “Number … rotating rod test” value ([7]; 75 mg/kg p.o., 2 hr) was 4 mice. The “Number … rotating rod test” value ([7]; 75 mg/kg p.o., 3 hr) was 4 mice, the “Number … rotating rod test” value ([7]; 150 mg/kg p.o., 1 hr) was 5 mice and the “Number … rotating rod test” value ([7]; 150 mg/kg p.o., 2 hr) was 5 mice. The “Number … rotating rod test” value ([7]; 150 mg/kg p.o., 3 hr) was 5 mice.

For `Cc1c(C(=O)N(C)C)oc2c(Cl)cccc12` [Compound (C), 7-chloro-N,N,3-trimethylbenzo[b]furan-2-carboxamide], the responders at 25 mg/kg [1] was 40%, the responders at 50 mg/kg [1] was 66.7% and the responders at 75 mg/kg [1] was 80%. The responders at 100 mg/kg [1] was 100%, the inhibition in vivo at 50 mg/kg [2] was 85.3% and the inhibition in vivo at 150 mg/kg [2] was 100%. The “Number of dropped mice, traction test” value ([3]; 25 mg/kg p.o., 1 hr) was 0 mice, the “Number of dropped mice, traction test” value ([3]; 25 mg/kg p.o., 2 hr) was 0 mice and the “Number of dropped mice, traction test” value ([3]; 25 mg/kg p.o., 3 hr) was 0 mice. The “Number of dropped mice, traction test” value ([3]; 50 mg/kg p.o., 1 hr) was 5 mice, the “Number of dropped mice, traction test” value ([3]; 50 mg/kg p.o., 2 hr) was 4 mice and the “Number of dropped mice, traction test” value ([3]; 50 mg/kg p.o., 3 hr) was 1 mice. For the same compound, the “Number of dropped mice, traction test” value ([3]; 100 mg/kg p.o., 1 hr) was 5 mice, the “Number of dropped mice, traction test” value ([3]; 100 mg/kg p.o., 2 hr) was 5 mice and the “Number of dropped mice, traction test” value ([3]; 100 mg/kg p.o., 3 hr) was 5 mice. The LD50 at 168 h [4] was over 1000 mg/kg, the inhibition in vivo at 150 mg/kg [5] was 35.1% and the inhibition in vivo at 300 mg/kg ([5]; 300 mg/kg p.o.) was 57.8%. The “Number of dropped mice, slant test” value ([6]; 50 mg/kg p.o., 1 hr) was 5 mice, the “Number of dropped mice, slant test” value ([6]; 50 mg/kg p.o., 2 hr) was 4 mice and the “Number of dropped mice, slant test” value ([6]; 50 mg/kg p.o., 3 hr) was 1 mice. For the same compound, the “Number of dropped mice, slant test” value ([6]; 100 mg/kg p.o., 1 hr) was 5 mice, the “Number of dropped mice, slant test” value ([6]; 100 mg/kg p.o., 2 hr) was 5 mice and the “Number of dropped mice, slant test” value ([6]; 100 mg/kg p.o., 3 hr) was 5 mice. The “Number … rotating rod test” value ([7]; 25 mg/kg p.o., 1 hr) was 3 mice, the “Number … rotating rod test” value ([7]; 25 mg/kg p.o., 2 hr) was 1 mice and the “Number … rotating rod test” value ([7]; 25 mg/kg p.o., 3 hr) was 0 mice. For the same compound, the “Number … rotating rod test” value ([7]; 50 mg/kg p.o., 1 hr) was 5 mice, the “Number … rotating rod test” value ([7]; 50 mg/kg p.o., 2 hr) was 5 mice and the “Number … rotating rod test” value ([7]; 50 mg/kg p.o., 3 hr) was 2 mice. The “Number … rotating rod test” value ([7]; 100 mg/kg p.o., 1 hr) was 5 mice, the “Number … rotating rod test” value ([7]; 100 mg/kg p.o., 2 hr) was 5 mice and the “Number … rotating rod test” value ([7]; 100 mg/kg p.o., 3 hr) was 5 mice.
